From publication PMC4661694, “Aminopeptidase T of M29 Family Acts as A Novel Intracellular Virulence Factor for Listeria monocytogenes Infection” (Scientific Reports, 2015) come the findings set out here.

The target in the experiment is T1, Lmo1603 (Listeria monocytogenes, UniProt Q8Y6T0).
T1 construct: tag removal not mentioned
Nature of the experiment: p-nitroaniline release, absorbance […] nm. It is filed as biochemical. The settings on record: 50 mM Tris-HCl pH 8.5, 2 mM substrate, 5 uM enzyme, 12 h.

T1 sequence (Q8Y6T0 entry or part of it): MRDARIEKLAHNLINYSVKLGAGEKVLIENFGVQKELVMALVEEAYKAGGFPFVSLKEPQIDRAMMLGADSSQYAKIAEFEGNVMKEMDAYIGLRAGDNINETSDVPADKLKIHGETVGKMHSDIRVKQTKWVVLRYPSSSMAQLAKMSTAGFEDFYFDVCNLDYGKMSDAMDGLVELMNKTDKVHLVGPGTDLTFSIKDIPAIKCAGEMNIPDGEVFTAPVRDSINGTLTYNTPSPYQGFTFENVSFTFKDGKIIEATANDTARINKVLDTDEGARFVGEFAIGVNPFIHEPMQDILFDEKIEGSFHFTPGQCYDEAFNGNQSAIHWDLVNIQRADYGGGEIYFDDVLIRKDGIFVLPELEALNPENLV

As for `N=C(N)NCCC[C@H](N)C(=O)Nc1ccc([N+](=O)[O-])cc1` [Arg-pNA], the “p-nitroaniline release, absorbance 405 nm” value (cobalt-activated enzyme) was “Lmo1603 showed the highest activity towards Arg-pNA, followed by Leu-pNA and Ala-pNA”. In the case of `CC(C)C[C@H](N)C(=O)Nc1ccc([N+](=O)[O-])cc1` [Leu-pNA], the “p-nitroaniline release, absorbance 405 nm” value was “Lmo1603 showed the highest activity towards Arg-pNA, followed by Leu-pNA and Ala-pNA”.
